The data set has as its system CCRIS mutagenicity, Ames/micronucleus/aberration tests. The data set is described as follows: CCRIS mutagenicity studies. The conditions noted are these: Method: PREINCUBATION
The mark [1] stands for this setting: Test System: AMES SALMONELLA TYPHIMURIUM, Strain/Indicator: TA98, Metabolic Activation: NONE.
Where [2] appears, read: Test System: AMES SALMONELLA TYPHIMURIUM, Strain/Indicator: TA100, Metabolic Activation: NONE.
Setting [3] is: Test System: AMES SALMONELLA TYPHIMURIUM, Strain/Indicator: TA1535, Metabolic Activation: NONE.
[4] abbreviates: Test System: AMES SALMONELLA TYPHIMURIUM, Strain/Indicator: TA1537, Metabolic Activation: NONE.

The record followed here is PubChem BioAssay AID1259407 (Chemical Carcinogenesis Research Information System (CCRIS), 2018).

Activity calls are given as the source filed them. How the calls were made is not given here.

In the case of `Nc1nc(-c2ccc([N+](=O)[O-])cc2)nc2nc[nH]c12`, the mutagenic call is “active; positive” (Test System: AMES SALMONELLA TYPHIMURIUM, Strain/Indicator: TA98(1,8-DNP), Metabolic Activation: NONE); “active; positive” (Test System: AMES SALMONELLA TYPHIMURIUM, Strain/Indicator: TA98(1,8-DNP), Metabolic Activation: RAT, LIVER, S-9, PCB); “active; positive” (Test System: AMES SALMONELLA TYPHIMURIUM, Strain/Indicator: TA98(NR), Metabolic Activation: NONE); “active; positive” (Test System: AMES SALMONELLA TYPHIMURIUM, Strain/Indicator: TA98(NR), Metabolic Activation: RAT, LIVER, S-9, PCB); “active; positive” under setting [1]; “active; positive” (Test System: AMES SALMONELLA TYPHIMURIUM, Strain/Indicator: TA98, Metabolic Activation: RAT, LIVER, S-9, PCB). In addition, the mutagenic call was “active; positive” (Test System: AMES SALMONELLA TYPHIMURIUM, Strain/Indicator: TA100(1,8-DNP), Metabolic Activation: NONE); “active; positive” (Test System: AMES SALMONELLA TYPHIMURIUM, Strain/Indicator: TA100(1,8-DNP), Metabolic Activation: RAT, LIVER, S-9, PCB); “active; positive” (Test System: AMES SALMONELLA TYPHIMURIUM, Strain/Indicator: TA100(NR), Metabolic Activation: NONE); “active; positive” (Test System: AMES SALMONELLA TYPHIMURIUM, Strain/Indicator: TA100(NR), Metabolic Activation: RAT, LIVER, S-9, PCB); “active; positive” under setting [2]; “active; positive” (Test System: AMES SALMONELLA TYPHIMURIUM, Strain/Indicator: TA100, Metabolic Activation: RAT, LIVER, S-9, PCB). The mutagenic call runs as follows: (Test System: AMES SALMONELLA TYPHIMURIUM, Strain/Indicator: YG1020, Metabolic Activation: NONE) “active; positive”; (Test System: AMES SALMONELLA TYPHIMURIUM, Strain/Indicator: YG1020, Metabolic Activation: RAT, LIVER, S-9, PCB) “active; positive”; (Test System: AMES SALMONELLA TYPHIMURIUM, Strain/Indicator: YG1021, Metabolic Activation: NONE) “active; positive”; (Test System: AMES SALMONELLA TYPHIMURIUM, Strain/Indicator: YG1021, Metabolic Activation: RAT, LIVER, S-9, PCB) “active; positive”; (Test System: AMES SALMONELLA TYPHIMURIUM, Strain/Indicator: YG1024, Metabolic Activation: NONE) “active; positive”; (Test System: AMES SALMONELLA TYPHIMURIUM, Strain/Indicator: YG1024, Metabolic Activation: RAT, LIVER, S-9, PCB) “active; positive”. In addition, the mutagenic call is “active; positive” (Test System: AMES SALMONELLA TYPHIMURIUM, Strain/Indicator: YG1025, Metabolic Activation: NONE); “active; positive” (Test System: AMES SALMONELLA TYPHIMURIUM, Strain/Indicator: YG1025, Metabolic Activation: RAT, LIVER, S-9, PCB); “active; positive” (Test System: AMES SALMONELLA TYPHIMURIUM, Strain/Indicator: YG1026, Metabolic Activation: NONE); “active; positive” (Test System: AMES SALMONELLA TYPHIMURIUM, Strain/Indicator: YG1026, Metabolic Activation: RAT, LIVER, S-9, PCB); “active; positive” (Test System: AMES SALMONELLA TYPHIMURIUM, Strain/Indicator: YG1029, Metabolic Activation: NONE); “active; positive” (Test System: AMES SALMONELLA TYPHIMURIUM, Strain/Indicator: YG1029, Metabolic Activation: RAT, LIVER, S-9, PCB).

On to `CCCC(=O)O[C@H]1[C@H](C)O[C@@H](O[C@H]2[C@H](N(C)C)[C@@H](O)[C@H](O[C@H]3[C@@H](CC=O)C[C@@H](C)[C@@H](O)/C=C/C=C/C[C@@H](C)OC(=O)C[C@@H](O)[C@@H]3OC)O[C@@H]2C)C[C@@]1(C)OC(=O)CC`, for which the mutagenic call is “inactive; negative” under setting [1]; “inactive; negative” (Test System: AMES SALMONELLA TYPHIMURIUM, Strain/Indicator: TA98, Metabolic Activation: RAT, LIVER, S-9, AROCLOR 1254); “inactive; negative” under setting [2]; “inactive; negative” (Test System: AMES SALMONELLA TYPHIMURIUM, Strain/Indicator: TA100, Metabolic Activation: RAT, LIVER, S-9, AROCLOR 1254); “inactive; negative” under setting [3]; “inactive; negative” (Test System: AMES SALMONELLA TYPHIMURIUM, Strain/Indicator: TA1535, Metabolic Activation: RAT, LIVER, S-9, AROCLOR 1254). For the same compound, the mutagenic call is, setting by setting: under setting [4], “inactive; negative”; (Test System: AMES SALMONELLA TYPHIMURIUM, Strain/Indicator: TA1537, Metabolic Activation: RAT, LIVER, S-9, AROCLOR 1254) “inactive; negative”; (Test System: AMES SALMONELLA TYPHIMURIUM, Strain/Indicator: TA1538, Metabolic Activation: NONE) “inactive; negative”; (Test System: AMES SALMONELLA TYPHIMURIUM, Strain/Indicator: TA1538, Metabolic Activation: RAT, LIVER, S-9, AROCLOR 1254) “inactive; negative”; (Test System: E. COLI, Strain/Indicator: WP2 UVRA, Metabolic Activation: NONE) “inactive; negative”; (Test System: E. COLI, Strain/Indicator: WP2 UVRA, Metabolic Activation: RAT, LIVER, S-9, AROCLOR 1254) “inactive; negative”.

Take `Nc1cc(C(=O)O)c(O)c(S(=O)(=O)O)c1`: the mutagenic call is, setting by setting: (Test System: AMES SALMONELLA TYPHIMURIUM, Strain/Indicator: TA97, Metabolic Activation: HAMSTER, LIVER, S-9, AROCLOR 1254 (10 OR 30%)) “inactive; negative”; (Test System: AMES SALMONELLA TYPHIMURIUM, Strain/Indicator: TA97, Metabolic Activation: NONE) “inactive; negative”; (Test System: AMES SALMONELLA TYPHIMURIUM, Strain/Indicator: TA97, Metabolic Activation: RAT, LIVER, S-9, AROCLOR 1254 (10%)) “inactive; negative”; (Test System: AMES SALMONELLA TYPHIMURIUM, Strain/Indicator: TA97, Metabolic Activation: RAT, LIVER, S-9, AROCLOR 1254 (30%)) “inactive; negative”; (Test System: AMES SALMONELLA TYPHIMURIUM, Strain/Indicator: TA98, Metabolic Activation: HAMSTER, LIVER, S-9, AROCLOR 1254 (10 OR 30%)) “inactive; negative”; under setting [1], “inactive; negative”. The mutagenic call is, setting by setting: (Test System: AMES SALMONELLA TYPHIMURIUM, Strain/Indicator: TA98, Metabolic Activation: RAT, LIVER, S-9, AROCLOR 1254 (10 OR 30%)) “inactive; negative”; (Test System: AMES SALMONELLA TYPHIMURIUM, Strain/Indicator: TA100, Metabolic Activation: HAMSTER, LIVER, S-9, AROCLOR 1254 (10 OR 30%)) “inactive; negative”; under setting [2], “inactive; negative”; (Test System: AMES SALMONELLA TYPHIMURIUM, Strain/Indicator: TA100, Metabolic Activation: RAT, LIVER, S-9, AROCLOR 1254 (10 OR 30%)) “inactive; negative”; (Test System: AMES SALMONELLA TYPHIMURIUM, Strain/Indicator: TA1535, Metabolic Activation: HAMSTER, LIVER, S-9, AROCLOR 1254 (10 OR 30%)) “inactive; negative”; under setting [3], “inactive; negative”. Besides, the mutagenic call reads like this: (Test System: AMES SALMONELLA TYPHIMURIUM, Strain/Indicator: TA1535, Metabolic Activation: RAT, LIVER, S-9, AROCLOR 1254 (10 OR 30%)) “inactive; negative”; (Test System: AMES SALMONELLA TYPHIMURIUM, Strain/Indicator: TA1537, Metabolic Activation: HAMSTER, LIVER, S-9, AROCLOR 1254 (10 OR 30%)) “inactive; negative”; under setting [4], “inactive; negative”; (Test System: AMES SALMONELLA TYPHIMURIUM, Strain/Indicator: TA1537, Metabolic Activation: RAT, LIVER, S-9, AROCLOR 1254 (10 OR 30%)) “inactive; negative”.
